pIC50: −log10 of the molar value.
Tests used:
[1] = system: T. gondii tachyzoites (RH-YFP strain); assay: In vitro challenge assay for Toxoplasma tachyzoites (RH-YFP in HFF, fluorescence); format: cell-based, Toxoplasma gondii
Experimental: Human foreskin fibroblasts (HFF) were cultured on a flat, clear-bottomed, black 96-well plate to 90% to 100% confluence. IMDM (1×, [+] glutamine, [+] 25 mM HEPES, [+] Phenol red, 10% FBS [gibco, Denmark]) was removed from each well and replaced with IMDM-C (1×, [+] glutamine, [+] 25 mM HEPES, [−] Phenol red, 10% FBS)[Gibco, Denmark]). Type I RH parasites expressing Yellow Fluorescent Protein (RH-YFP) were lysed from host cells by double passage through a 27-gauge needle. Parasites were counted and diluted to 32,000/mL in IMDM-C. Fibroblast cultures were infected with 3200 tachyzoites of the Type I RH-YFP strain and returned to incubator at 37° C. for 1-2 hours to allow for infection. Diluted solutions of the compounds were made using IMDM-C, and 20 μl were added to each designated well, with triplicates for each condition. Controls included pyrimethamine/sulfadiazine (current standard of treatment), DMSO only, fibroblast only, and an untreated YFP gradient with 2 fold dilutions of the parasite. Cells were incubated at 37° C. for 72 hours. The plates were read using a fluorimeter (Synergy H4 Hybrid Reader, BioTek) To ascertain the amount of yellow fluorescent protein, in relative fluorescence units (RFU), as a measure of parasite burden after treatment. Compounds were not considered effective or pursued for further analysis if there were no signs of inhibition at 1 μM. Data was collected using Gen5 software and analyzed with Excel.
Protocol adapted from Fomovska, et. al. (18,19). Human foreskin fibroblasts (HFF) were cultured on a flat, clear-bottomed, black 96-well plate to 90% to 100% confluence. IMDM (1×, [+] glutamine, [+] 25 mM HEPES, [+] Phenol red, 10% FBS [gibco, Denmark]) was removed from each well and replaced with IMDM-C (1×, [+] glutamine, [+] 25 mM HEPES, [−] Phenol red, 10% FBS)[gibco, Denmark]). Type I RH parasites expressing Yellow Fluorescent Protein (RH-YFP) were lysed from host cells by double passage through a 27-gauge needle. Parasites were counted and diluted to 32,000/mL in IMDM-C. Fibroblast cultures were infected with 3200 tachyzoites of the Type I RH strain expressing Yellow Fluorescent Protein (RH-YFP) and returned to incubator at 37° C. for 1-2 hours to allow for infection (15). Various concentrations of the compounds were made using IMDM-C, and 20 μl were added to each designated well, with triplicates for each condition. Controls included pyrimethamine/sulfadiazine (current standard of treatment), 0.1% DMSO only, fibroblast only, and an untreated YFP gradient with 2 fold dilutions of the parasite. Cells were incubated at 37° C. for 72 hours. Plates were read using a fluorimeter (Synergy H4 Hybrid Reader, BioTek) to ascertain the amount of yellow fluorescent protein, in relative fluorescence units (RFU), as a measure of parasite burden after treatment. Data was collected using Gen5 software. IC50 was calculated by graphical analysis in Excel.
An initial screening assay of 10 μM, 1 μM, 100 nM, and 10 nM was performed. Compounds were not considered effective or pursued for further analysis if there were no signs of inhibition of tachyzoites at 1 μM. If compounds did appear to be effective at 1 μM, another experiment was conducted to assess effect at 1 μM, 500 nM, 250 nM, 125 nM, 62.5 nM, and 31.25 nM.
Protocol adapted from Fomovska, et. al. (Fomovska A, Huang Q, El Bissati K, Mui E J, Witola W H, Cheng G, et al. Novel N-Benzoyl-2-Hydroxybenzamide Disrupts Unique Parasite Secretory Pathway. Antimicrob Agents Chemother [Internet]. 2012 May [cited 2015 Jul. 8]; 56(5):2666-82; Fomovska A, Wood R D, Mui E, Dubey J P, Ferreira L R, Hickman M R, et al. Salicylanilide inhibitors of Toxoplasma gondii. J Med Chem. 2012 Oct. 11; 55(19):8375-91.). Human foreskin fibroblasts (HFF) were cultured on a flat, clear-bottomed, black 96-well plate to 90% to 100% confluence. […]

[2] = target: T1, Plasmodium falciparum bc1 complex cytochrome c reductase (Pfbc1) (Plasmodium falciparum, UniProt Q02768); assay: Pfbc1 native assay (cytochrome c reduction by parasite extract); format: biochemical; settings: compound 1 μM; mean ± s.e.m. of 4 independent experiments
T1 construct: Parasite extract was then prepared by disruption with a sonicating probe; endogenous in cells; host or cells: P. falciparum 3D7 blood-stage parasites, saponin-freed and sonicated (crude parasite extract)
T1 sequence (Q02768 1-376): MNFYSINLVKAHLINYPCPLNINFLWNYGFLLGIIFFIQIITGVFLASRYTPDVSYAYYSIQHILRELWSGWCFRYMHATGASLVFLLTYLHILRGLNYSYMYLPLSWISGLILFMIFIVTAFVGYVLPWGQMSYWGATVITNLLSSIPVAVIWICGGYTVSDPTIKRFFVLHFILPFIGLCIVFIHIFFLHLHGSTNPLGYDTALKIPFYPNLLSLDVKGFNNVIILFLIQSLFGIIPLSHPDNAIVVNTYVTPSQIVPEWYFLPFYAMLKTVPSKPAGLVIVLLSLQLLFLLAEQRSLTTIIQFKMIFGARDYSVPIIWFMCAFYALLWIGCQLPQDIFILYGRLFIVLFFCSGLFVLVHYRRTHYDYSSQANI
Experimental: Plasmodium falciparum: 3D7 strain was obtained from the Liverpool School of Tropical Medicine. Protease cocktail inhibitor was obtained from Roche. Bradford protein assay dye reagent was obtained from Bio-Rad. All other reagents were obtained from Sigma-Aldrich. Decylubiquinol was produced as per Fisher et al. (Fisher et al. 2004)^21. In brief, 25 mg of decylubiquinone were dissolved in 400 μl of nitrogen-saturated hexane. An equal volume of aqueous 1 M sodium dithionite was added, and the mixture vortexed until colorless. The organic phase containing the decylubiquinol was collected, the solvent was evaporated under N2 and the decylubiquinol finally dissolved in 100 μl of 96% ethanol (acidified with 10 mM HCl). Concentrations of decylubiquinol was determined spectrophotometrically on a Cary 300 Bio UV/visible spectrophotometer (Varian, UK) from absolute spectra, using ε288-320=8.1 mM-1·cm^−1. Decylubiquinol was stored at −80° C. and used within two weeks.
The protocol for the preparation of parasite extract was adapted from Fisher et al. (Fisher et al. 2009)^22. Free parasites were prepared from infected erythrocytes pooled from five T75 flasks, by adding 5 volumes of 0.15% (w/v) saponin in phosphate-buffered saline (137 mM NaCl, 2.7 mM KCl, 1.76 mM K2HPO4, 8.0 mM Na2HPO4, 5.5 mM D-glucose, pH 7.4) for 5 min, followed by three washes by centrifugation in RPMI containing HEPES (25 mM), and a final resuspension in potassium phosphate buffer (50 mM K2HPO4, 50 mM KH2PO4, 2 mM EDTA, pH7.4) containing a protease inhibitor cocktail (Complete Mini; Roche). Parasite extract was then prepared by disruption with a sonicating probe for 5 s, followed by a 1 min rest period on ice to prevent the sample overheating. […] The protein concentration of the parasite extract was determined by Bradford protein assay (Bio-Rad).
Plasmodium falciparum bc1 complex cytochrome c reductase (Pfbc1) activity was measured by monitoring cytochrome c reduction at 550 versus 542 nm using a Cary 300 Bio UV-Visible Spectrophotometer (Varian, UK), using a protocol adapted from Fisher et al. (Fisher et al. 2009)^21-23. […]

[3] = system: T. gondii bradyzoites (EGS strain); assay: EGS strain bradyzoite assay (cysts in HFF, dolichos/BAG1 staining); format: cell-based, Toxoplasma gondii; settings: 5 and 10 μM, in HFF
Experimental: (§1) HFF cells were grown in IMDM (1×, [+] glutamine, [+] 25 mM HEPES, [+] Phenol red, 10% FBS, [Gibco, Denmark]) on removable, sterile glass disks in the bottom of a clear, flat-bottomed 24-well plate. Cultures were infected with 3×10^4 parasites (EGS strain) per well, in 0.5 mL media and plate was returned to incubator at 37° C. overnight. The following day, the media was removed and clear IMDM and compounds were added to making various concentrations of the drug, to a total volume of 0.5 mL. Two wells were filled with media only, as a control. Plates were returned to the 37° C. incubator for 72 hours.
Efficacy was determined following fixation. Staining was used to determine the numbers of cysts in cultures without and with treatment with the test compounds. Cells were fixed using 4% paraformaldehyde and stained with Fluorescein-labeled Dolichos Biflorus Agglutinin, DAPI, and anti-BAG1, and anti-SAG1. Disks were removed and mounted onto glass slides and visualized using microscopy (Nikon Tl7). Slides were also scanned using a CRi Pannoramic Scan Whole Slide Scanner and viewed using Panoramic Viewer Software.
as §1, with “[gibco,” for “[Gibco,”, “2” for “Two”, “72 hours, and checked once every 24” for “72”, “hours. If tachyzoites were visible in the control before 72 hours, the cells were fixed and stained.” for “hours.”
Cells were fixed using 4% paraformaldehyde and stained with Fluorescein-labeled Dolichos Biflorus Agglutinin, DAPI, and BAG1. Disks were removed and mounted onto glass slides and visualized using microscopy (Nikon Tl7). Slides were scanned using a CRi Pannoramic Scan Whole Slide Scanner and viewed using Panoramic Viewer Software. Effects of the compounds were quantified by counting cysts in the controls and treated cells. Cysts and persisting organisms were counted in a representative field of view and then multiplied by a factor determined by the total area of the disk in order to estimate the number of cysts and organisms in each condition.
HFF cells were grown in IMDM (1×, [+] glutamine, [+] 25 mM HEPES, [+] Phenol red, 10% FBS, [gibco, Denmark]) on removable, sterile glass disks in the bottom of a clear, flat-bottomed 24-well plate. Cultures were infected with 3×10^4 parasites (EGS strain) per well, in 0.5 mL media and plate was returned to incubator at 37° C. overnight. The following day, the media was removed and clear IMDM and compounds were added to making various concentrations of the drug, to a total volume of 0.5 mL. 2 wells were filled with media only, as a control. Plates were returned to the 37° C. incubator for 72 hours, and checked once every 24 hours. If tachyzoites were visible in the control before 72 hours, the cells were fixed and stained. Cells were fixed using 4% paraformaldehyde and stained with Fluorescein-labeled Dolichos Biflorus Agglutinin, DAPI, and BAG1. Disks were removed and mounted onto glass slides and visualized using microscopy (Nikon Tl7). Slides were scanned using a CRi Pannoramic Scan Whole Slide Scanner and viewed using Panoramic Viewer Software. Effects of the compounds were quantified by counting cysts in the controls and treated cells. Cysts and persisting organisms were counted in a representative field of view and then multiplied by a factor determined by the total area of the disk in order to estimate the number of cysts and organisms in each condition. Data was collected using Gen5 software. IC50 was calculated by graphical analysis in Excel.

Compound	pIC50 ([1]; Toxoplasma gondii, RH-YFP, read-out: Tachy IC50)	Inhibition of cytochrome c reduction (% atovaquone response) [2] [% atovaquone response]	effect on tachyzoite replication ([1]; 5 and 10 μM, vs off target control)	effect on size and number of EGS cysts [3]
O=c1c2c([nH]c(CO)c1-c1ccc(Oc3ccc(OC(F)(F)F)cc3)cc1)CCCC2 [JAG099, 3(4-(4-Trifluoromethoxyphenoxy)phenyl)-2-(methylhydroxy)-5,6,7,8-tetrahydroquinolin-4(1H)-one]	6.49	81.3 ± 6.0		
Vivoporter-PMOs: "Vivo-PMO (Vivo porter linked to morpholinos) to knock down cytochrome b"; sequence 5′ AGTGTTCTCGAAACCATGCTAACAC 3′ (SEQ ID NO: 5) (all phosphorodiamidate morpholino (PMO); Vivo-Porter delivery moiety attached to morpholino, further chemistry not fully specified; listed as Homo sapiens) [reference compound]			modest effect	small effect
